We go through 53 compounds from patent publication US12692233B2, “Anthelmintic compounds comprising a pyridine structure” (Intervet Inc., priority 2020, dated 2026).

One experiment deals with C. elegans Slo-1a (Caenorhabditis elegans, UniProt Q95V25). Briefly: Agonistic activity at C. elegans Slo-1a, FLIPR membrane potential in CHO K1 cells. The following applies: EC50 agonistic activity at C. elegans Slo-1a, CHO K1 cells stably transfected with slo-1a, membrane potential dye.
In experiment [1] the target is T1, human Maxi K channel (BK channel) (Homo sapiens, UniProt Q12791).
T1 construct: expressed in transfected cells; host or cells: CHO K1
Briefly: Agonistic activity at the human Maxi K channel (BK channel), FLIPR membrane potential in CHO K1 cells. The format is cell-based. The following applies: CHO K1 cells stably transfected with KCNMA1 and beta1 (KCNMB1) subunits, membrane potential dye. The source says:
A CHO K1 cell line was stably transfected with the KCNMA1 (KCa1.1, U11058) and beta1 (KCNMB1) subunits of the human Maxi K channel (Ponte et al, Molecular Pharmacology 2012, 81(4), 567-577).
The complete measurement takes 150 s.

Another experiment deals with Ascaridia galli. The experiment can be described thus: In vitro assay Ascaridia galli larval stage 3. The note with it: larval stage 3, 20 larvae per well, microscopic examination, read-out: MEC (minimum effective concentration) against Ascaridia galli L3. The format is cell-based. The source says: […] galli (intestinal roundworm of chicken), larval stage 3 (“L3”); and Oesophagostumum dentatum (nodular worm of swine), larval stages 3 and 4 (respectively “L3” and “L4”) where suspended in a nutrient medium and distributed to 96 well plates with 20 larvae per well. The wells were spiked DMSO solutions of the compounds with declining concentration.

Bounds are passed on as bounds.

As usually defined, the EC50 is the concentration that produces a half-maximal response. A low value points to an effect from little substance.

C. elegans Slo-1a, sequence (Q95V25 whole entry): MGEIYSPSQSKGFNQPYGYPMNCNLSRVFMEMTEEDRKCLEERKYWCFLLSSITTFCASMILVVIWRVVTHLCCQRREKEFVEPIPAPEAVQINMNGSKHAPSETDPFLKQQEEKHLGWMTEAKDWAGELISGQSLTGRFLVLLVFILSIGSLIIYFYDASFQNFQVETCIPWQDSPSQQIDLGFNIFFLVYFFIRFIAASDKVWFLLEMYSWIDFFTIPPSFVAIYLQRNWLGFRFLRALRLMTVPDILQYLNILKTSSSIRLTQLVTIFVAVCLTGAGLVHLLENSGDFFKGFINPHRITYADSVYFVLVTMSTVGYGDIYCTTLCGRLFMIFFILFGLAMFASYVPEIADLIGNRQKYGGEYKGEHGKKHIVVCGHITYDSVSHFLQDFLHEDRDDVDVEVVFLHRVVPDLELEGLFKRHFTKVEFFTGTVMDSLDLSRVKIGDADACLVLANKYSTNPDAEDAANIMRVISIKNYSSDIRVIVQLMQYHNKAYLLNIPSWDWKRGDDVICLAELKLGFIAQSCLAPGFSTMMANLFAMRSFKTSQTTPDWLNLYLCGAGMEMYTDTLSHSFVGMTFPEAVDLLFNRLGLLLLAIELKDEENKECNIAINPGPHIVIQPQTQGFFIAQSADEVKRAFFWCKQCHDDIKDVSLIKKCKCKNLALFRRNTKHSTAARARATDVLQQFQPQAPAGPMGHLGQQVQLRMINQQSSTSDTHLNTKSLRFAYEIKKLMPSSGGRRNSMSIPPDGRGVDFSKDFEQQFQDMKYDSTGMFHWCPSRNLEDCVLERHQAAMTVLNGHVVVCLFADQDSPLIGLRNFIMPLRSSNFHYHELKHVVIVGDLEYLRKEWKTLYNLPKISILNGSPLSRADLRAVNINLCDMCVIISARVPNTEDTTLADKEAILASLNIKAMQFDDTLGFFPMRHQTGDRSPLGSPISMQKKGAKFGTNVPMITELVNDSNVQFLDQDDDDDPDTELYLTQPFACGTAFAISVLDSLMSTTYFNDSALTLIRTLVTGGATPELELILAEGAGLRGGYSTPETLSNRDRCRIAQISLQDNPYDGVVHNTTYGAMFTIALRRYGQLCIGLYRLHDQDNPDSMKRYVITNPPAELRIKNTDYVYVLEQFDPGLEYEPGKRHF
T1 sequence (Q12791 1-1178 isoform Q12791-5): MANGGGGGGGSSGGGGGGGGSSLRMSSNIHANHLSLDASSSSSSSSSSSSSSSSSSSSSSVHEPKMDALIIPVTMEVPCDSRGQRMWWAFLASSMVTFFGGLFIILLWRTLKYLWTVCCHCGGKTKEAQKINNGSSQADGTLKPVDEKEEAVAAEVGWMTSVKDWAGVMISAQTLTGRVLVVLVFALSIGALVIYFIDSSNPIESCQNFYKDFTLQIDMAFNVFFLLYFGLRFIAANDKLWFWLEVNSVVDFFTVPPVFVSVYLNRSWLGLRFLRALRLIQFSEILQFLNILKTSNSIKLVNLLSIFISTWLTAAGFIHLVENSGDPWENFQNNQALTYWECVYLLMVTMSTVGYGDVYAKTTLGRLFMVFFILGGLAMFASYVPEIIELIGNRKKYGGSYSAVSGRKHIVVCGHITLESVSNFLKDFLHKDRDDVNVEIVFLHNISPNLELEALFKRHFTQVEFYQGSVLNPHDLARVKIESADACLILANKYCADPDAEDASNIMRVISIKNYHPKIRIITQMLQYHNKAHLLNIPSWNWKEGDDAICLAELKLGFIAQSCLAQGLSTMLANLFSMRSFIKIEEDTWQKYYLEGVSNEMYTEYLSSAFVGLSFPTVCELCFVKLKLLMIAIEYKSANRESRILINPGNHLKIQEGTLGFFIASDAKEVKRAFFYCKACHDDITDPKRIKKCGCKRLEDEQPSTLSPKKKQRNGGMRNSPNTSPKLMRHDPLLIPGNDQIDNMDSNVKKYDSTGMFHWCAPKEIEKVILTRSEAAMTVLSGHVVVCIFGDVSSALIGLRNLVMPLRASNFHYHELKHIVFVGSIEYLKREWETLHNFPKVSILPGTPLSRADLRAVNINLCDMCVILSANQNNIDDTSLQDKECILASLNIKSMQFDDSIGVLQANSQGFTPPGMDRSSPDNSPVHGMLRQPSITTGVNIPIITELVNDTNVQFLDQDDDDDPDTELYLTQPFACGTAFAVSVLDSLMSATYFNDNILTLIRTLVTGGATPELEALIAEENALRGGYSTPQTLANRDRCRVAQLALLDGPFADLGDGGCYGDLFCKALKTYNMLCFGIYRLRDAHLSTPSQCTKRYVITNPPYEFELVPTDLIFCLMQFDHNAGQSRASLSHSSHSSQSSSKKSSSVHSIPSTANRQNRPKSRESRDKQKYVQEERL
T1 sequence (Q16558 whole entry partner): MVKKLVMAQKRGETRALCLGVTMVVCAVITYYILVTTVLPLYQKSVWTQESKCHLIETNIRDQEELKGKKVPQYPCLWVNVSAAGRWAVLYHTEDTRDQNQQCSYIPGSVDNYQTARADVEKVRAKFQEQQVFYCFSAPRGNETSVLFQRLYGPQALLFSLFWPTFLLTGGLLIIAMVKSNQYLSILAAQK
Procedure for C. elegans Slo-1a: A CHO K1 cell line stably transfected with the Caenorhabditis elegans slo-1a (accession no Y51A2D.19a) was established. Cells were seeded in microtiter plates (black 384-well MTP, clear bottom) in a concentration of 10,000 cells/well in 25 μl medium and cultured for 20 to 24 hours at 37° C. and 5% CO2. After incubation, 25 μl of FMP-dye Blue-Tyrode's was added to each well and incubated at room temperature for 30 min. Ten minutes after addition of 12.5 μl compound solution, the plates are transferred to the FLIPR for measurement.
For the membrane potential measurements, the plates were placed in the FLIPR Penta (Molecular Devices). The baseline measurement of the fluorescence was stared for 20 sec (Exc. 510-545 nm, Emm. 565-625 nm). Potential channel opening measurement was started by addition of 25 μl of KCl-Tyrode (final assay concentration of the KCl-Tyrode: 70 mM KCl, 2 mM CaCl2, 1 mM MgCl2, 0.8 mM NaH2PO4, 5 mM Glucose, 28 mM Hepes, pH 7.4, including the voltage sensitive dye). The complete measurement takes 150 s.
EC50 values were determined in triplicate utilizing compound dilution series. The data were determined at least in two independent tests. The data were proceeded by using the ActivityBase XE Runner software (IDBS) for curve fitting and calculation of the half-maximal effective concentration.

As to `O=C(N[C@H]1CCOc2ccccc21)c1cnc(Sc2cc(Cl)cc(Cl)c2)cc1N1CCOCC1` [Compound 3, (S)—N-(chroman-4-yl)-6-((3,5-dichlorophenyl)thio)-4-morpholinonicotinamide], the EC50 is < 1 µM on C. elegans Slo-1a and > 30 µM in experiment [1].

On to `O=C(N[C@H]1CCOc2ccccc21)c1cnc(Oc2cc(Cl)cc(Cl)c2)cc1N1CCOCC1` [Compound 5], for which the concentration for a half-maximal effect (EC50) is < 1 µM at C. elegans Slo-1a and > 30 µM in experiment [1].

In the case of `O=C(N[C@H]1CCCc2ccccc21)c1cnc(Oc2cccc(Cl)c2Cl)cc1N1CCOCC1` [Compound 6], the results for the 50% effective concentration (EC50) (at C. elegans Slo-1a; in experiment [1]) were < 1 µM and > 30 µM, respectively.

Consider `O=C(N[C@H]1CCc2ccccc21)c1cnc(Oc2cccc(Cl)c2Cl)cc1N1CCOCC1` [Compound 7], for which the EC50 was < 1 µM on C. elegans Slo-1a and > 30 µM in experiment [1].

In the case of `O=C(N[C@H]1CCCc2ccccc21)c1cnc(Oc2cc(Cl)cc(Cl)c2)cc1N1CCOCC1` [Compound 8], the values for the 50% effective concentration (EC50) (on C. elegans Slo-1a; in experiment [1]) were < 1 µM and > 30 µM, respectively.

As to `O=C(N[C@H]1CCCc2ccccc21)c1cnc(Sc2cc(Cl)cc(Cl)c2)cc1N1CCOCC1` [Compound 9], the EC50 at C. elegans Slo-1a is < 1 µM; in experiment [1], > 30 µM.

Consider `O=C(Nc1cccc2ccccc12)c1cnc(Sc2cc(Cl)cc(Cl)c2)cc1N1CCOCC1` [Compound 10], for which, in the experiment on Ascaridia galli, the minimal effective concentration was ≤ 50 µM. For the same compound, in experiment [1], the EC50 was > 30 µM.

As to `O=C(N[C@H]1CCc2ccccc21)c1cnc(Sc2cc(Cl)cc(Cl)c2)cc1N1CCOCC1` [Compound 11], the figures for the EC50 (at C. elegans Slo-1a; in experiment [1]) were < 1 µM and > 30 µM, respectively.

For the compound `O=C(N[C@H]1CCOc2ccccc21)c1cnc(Oc2cccc(Cl)c2Cl)cc1N1CCOCC1` [Compound 12], the values for the EC50 (at C. elegans Slo-1a; in experiment [1]) were < 1 µM and > 30 µM, respectively.

Turning to `CN(C)c1cc(Sc2cc(Cl)cc(Cl)c2)ncc1C(=O)N[C@H]1CCOc2ccccc21` [Compound 13], the concentration for a half-maximal effect (EC50) in experiment [1] was > 30 µM.

Turning to `CN(C)c1cc(Sc2cc(Cl)cc(Cl)c2)ncc1C(=O)N[C@H]1CCCc2ccccc21` [Compound 14], the EC50 is < 10 µM on C. elegans Slo-1a and > 30 µM in experiment [1]. Further, in the experiment with Ascaridia galli, the minimal effective concentration was ≤ 50 µM.

In the case of `CN(C)c1cc(Sc2cc(Cl)cc(Cl)c2)ncc1C(=O)N[C@H]1CCc2ccccc21` [Compound 15], the EC50 at C. elegans Slo-1a is < 1 µM; in experiment [1] it was > 30 µM.

With `CN(C)c1cc(Sc2cccc(Cl)c2Cl)ncc1C(=O)N[C@H]1CCCc2ccccc21` [Compound 19], the results for the EC50 (at C. elegans Slo-1a; in experiment [1]) were < 1 µM and > 30 µM, respectively. The minimal effective concentration in the experiment on Ascaridia galli is ≤ 50 µM.

Regarding `CN(C)c1cc(Sc2cccc(Cl)c2Cl)ncc1C(=O)N[C@H]1CCOc2ccccc21` [Compound 20], the figures for the EC50 (on C. elegans Slo-1a; in experiment [1]) were < 1 µM and > 30 µM, respectively.

With `O=C(N[C@H]1CCOc2ccccc21)c1cnc(Sc2cccc(Cl)c2Cl)cc1N1CCOCC1` [Compound 22], the results for the 50% effective concentration (EC50) (at C. elegans Slo-1a; in experiment [1]) were < 1 µM and > 30 µM, respectively.

For the compound `O=C(N[C@H]1CCc2ccccc21)c1cnc(Oc2cc(Cl)cc(Cl)c2)cc1N1CCOCC1` [Compound 25, (S)-6-(3,5-dichlorophenoxy)-N-(2,3-dihydro-1H-inden-1-yl)-4-morpholinonicotinamide], the EC50 in experiment [1] is > 30 µM.

For the compound `O=C(Nc1cccc2ccccc12)c1cnc(Oc2cc(Cl)cc(Cl)c2)cc1N1CCOCC1` [Compound 26], the minimal effective concentration in the experiment on Ascaridia galli was ≤ 50 µM. In experiment [1], the EC50 was > 30 µM.

Regarding `O=C(Nc1csc2ccccc12)c1cnc(Sc2cc(Cl)cc(Cl)c2)cc1N1CCOCC1` [Compound 27], the minimal effective concentration with Ascaridia galli is ≤ 50 µM. Besides, in experiment [1], the EC50 was > 30 µM.

Turning to `CN(C)c1cc(Oc2cc(Cl)cc(Cl)c2)ncc1C(=O)N[C@H]1CCCc2ccccc21` [Compound 28], the concentration giving a half-maximal response (EC50) at C. elegans Slo-1a is < 1 µM; in experiment [1], > 30 µM. The minimal effective concentration with Ascaridia galli was ≤ 50 µM.

As to `CN(C)c1cc(Oc2cc(Cl)cc(Cl)c2)ncc1C(=O)N[C@H]1CCOc2ccccc21` [Compound 30], the values for the EC50 (at C. elegans Slo-1a; in experiment [1]) were < 1 µM and > 30 µM, respectively.

Take `CN(C)c1cc(Oc2cc(Cl)cc(Cl)c2)ncc1C(=O)N[C@H]1CCc2ccccc21` [Compound 31]: the concentration giving a half-maximal response (EC50) at C. elegans Slo-1a is < 1 µM; in experiment [1], > 30 µM.

Turning to `CN(C)c1cc(Sc2cc(Cl)cc(Cl)c2)ncc1C(=O)Nc1csc2ccccc12` [Compound 33], the minimal effective concentration in the experiment with Ascaridia galli was ≤ 50 µM. Further, the EC50 in experiment [1] is > 30 µM.

On to `CN(C)c1cc(Oc2cc(Cl)cc(Cl)c2)ncc1C(=O)Nc1csc2ccccc12` [Compound 38], for which the EC50 in experiment [1] was > 30 µM.

For `CN(C)c1cc(Sc2cccc(Cl)c2Cl)ncc1C(=O)N[C@H]1CCc2ccccc21` [Compound 42], the results for the EC50 (on C. elegans Slo-1a; in experiment [1]) were < 1 µM and > 30 µM, respectively.

For `CN(C)c1cc(Sc2cccc(Cl)c2Cl)ncc1C(=O)Nc1cccc2ccccc12` [Compound 43], the EC50 in experiment [1] is > 30 µM.

Turning to `CN(C)c1cc(Sc2cccc(Cl)c2Cl)ncc1C(=O)Nc1csc2ccccc12` [Compound 44], the concentration giving a half-maximal response (EC50) in experiment [1] is > 30 µM.

Consider `O=C(Nc1csc2ccccc12)c1cnc(Oc2cc(Cl)cc(Cl)c2)cc1N1CCOCC1` [Compound 47], for which the minimal effective concentration in the experiment on Ascaridia galli was ≤ 50 µM. Also, the concentration for a half-maximal effect (EC50) in experiment [1] was > 30 µM.

In the case of `O=C(Nc1cccc2ccccc12)c1cnc(Sc2cccc(Cl)c2Cl)cc1N1CCOCC1` [Compound 49], the minimal effective concentration with Ascaridia galli is ≤ 50 µM. Further, the EC50 in experiment [1] is > 30 µM.

As to `O=C(N[C@@H]1CCOc2ccccc21)c1cnc(Oc2cccc(Cl)c2Cl)cc1N1CCOCC1` [Compound 51], the half-maximal effective concentration (EC50) in experiment [1] was > 30 µM.

Turning to `CSc1cc(Sc2cccc(Cl)c2Cl)ncc1C(=O)N[C@H]1CCCc2ccccc21` [Compound 54], the values for the EC50 (on C. elegans Slo-1a; in experiment [1]) were < 10 µM and > 30 µM, respectively. Besides, the minimal effective concentration in the experiment with Ascaridia galli is ≤ 50 µM.

In the case of `CSc1cc(Oc2cc(Cl)cc(Cl)c2)ncc1C(=O)N[C@H]1CCCc2ccccc21` [Compound 59], the 50% effective concentration (EC50) at C. elegans Slo-1a was < 10 µM; in experiment [1] it was > 30 µM.

Consider `CSc1cc(Oc2cc(Cl)cc(Cl)c2)ncc1C(=O)N[C@H]1CCc2ccccc21` [Compound 61], for which, in the experiment with Ascaridia galli, the minimal effective concentration is ≤ 50 µM. The half-maximal effective concentration (EC50) in experiment [1] is > 30 µM.

As to `CCSc1cc(Sc2cccc(Cl)c2Cl)ncc1C(=O)N[C@H]1CCOc2ccccc21` [Compound 63], the EC50 in experiment [1] is > 30 µM.

Take `CCSc1cc(Sc2cccc(Cl)c2Cl)ncc1C(=O)N[C@H]1CCc2ccccc21` [Compound 64]: the 50% effective concentration (EC50) in experiment [1] was > 30 µM.

Take `CSc1cc(Sc2cc(Cl)cc(Cl)c2)ncc1C(=O)N[C@H]1CCc2ccccc21` [Compound 65]: the results for the concentration giving a half-maximal response (EC50) (on C. elegans Slo-1a; in experiment [1]) were < 10 µM and > 30 µM, respectively.

Regarding `CSc1cc(Sc2cc(Cl)cc(Cl)c2)ncc1C(=O)N[C@H]1CCCc2ccccc21` [Compound 69], the EC50 was < 10 µM on C. elegans Slo-1a and > 30 µM in experiment [1].

`CCOc1cc(Sc2cccc(Cl)c2Cl)ncc1C(=O)N[C@H]1CCCc2ccccc21` [Compound 70]: the concentration for a half-maximal effect (EC50) in experiment [1] is > 30 µM.

For `CCOc1cc(Sc2cccc(Cl)c2Cl)ncc1C(=O)N[C@H]1CCOc2ccccc21` [Compound 71], the figures for the concentration giving a half-maximal response (EC50) (at C. elegans Slo-1a; in experiment [1]) were < 10 µM and > 30 µM, respectively.

Take `CCSc1cc(Sc2cc(Cl)cc(Cl)c2)ncc1C(=O)N[C@H]1CCCc2ccccc21` [Compound 75]: the EC50 in experiment [1] is > 30 µM.

`CCSc1cc(Oc2cccc(Cl)c2Cl)ncc1C(=O)N[C@H]1CCCc2ccccc21` [Compound 76]: the EC50 in experiment [1] is > 30 µM.

Regarding `CCSc1cc(Oc2cccc(Cl)c2Cl)ncc1C(=O)N[C@H]1CCOc2ccccc21` [Compound 77], the EC50 in experiment [1] was > 30 µM.

As to `CCSc1cc(Oc2cccc(Cl)c2Cl)ncc1C(=O)N[C@H]1CCc2ccccc21` [Compound 78], the EC50 in experiment [1] is > 30 µM.

On to `CCSc1cc(Oc2cc(Cl)cc(Cl)c2)ncc1C(=O)N[C@H]1CCCc2ccccc21` [Compound 79], for which, in experiment [1], the EC50 is > 30 µM.

Consider `CCSc1cc(Oc2cc(Cl)cc(Cl)c2)ncc1C(=O)N[C@H]1CCOc2ccccc21` [Compound 80], for which the minimal effective concentration in the experiment with Ascaridia galli is ≤ 50 µM. The 50% effective concentration (EC50) in experiment [1] is > 30 µM.

As for `CCSc1cc(Oc2cc(Cl)cc(Cl)c2)ncc1C(=O)N[C@H]1CCc2ccccc21` [Compound 81], the EC50 in experiment [1] is > 30 µM.

For the compound `COc1cc(Oc2cc(Cl)cc(Cl)c2)ncc1C(=O)N[C@H]1CCc2ccccc21` [Compound 87], in experiment [1], the concentration giving a half-maximal response (EC50) was > 30 µM.

For the compound `CCOc1cc(Sc2cc(Cl)cc(Cl)c2)ncc1C(=O)N[C@H]1CCOc2ccccc21` [Compound 88], the concentration giving a half-maximal response (EC50) at C. elegans Slo-1a was < 10 µM; in experiment [1], > 30 µM.

Turning to `CCOc1cc(Oc2cc(Cl)cc(Cl)c2)ncc1C(=O)N[C@H]1CCOc2ccccc21` [Compound 89], the EC50 in experiment [1] was > 30 µM.

Regarding `CCOc1cc(Oc2cccc(Cl)c2Cl)ncc1C(=O)N[C@H]1CCCc2ccccc21` [Compound 91], the EC50 in experiment [1] was > 30 µM.

In the case of `CCOc1cc(Oc2cccc(Cl)c2Cl)ncc1C(=O)N[C@H]1CCc2ccccc21` [Compound 93], the EC50 in experiment [1] was > 30 µM.

For the compound `CCOc1cc(Oc2cc(Cl)cc(Cl)c2)ncc1C(=O)N[C@H]1CCCc2ccccc21` [Compound 98], the EC50 in experiment [1] was > 30 µM.

Turning to `CN(C)c1cc([S+]([O-])c2cc(Cl)cc(Cl)c2)ncc1C(=O)N[C@H]1CCc2ccccc21` (stereo partly drawn) [Compound 104, 6-((3,5-dichlorophenyl)sulfinyl)-N—((S)-2,3-dihydro-1H-inden-1-yl)-4-(dimethylamino)nicotinamide], the EC50 in experiment [1] was > 30 µM.

Take `CN(C)c1cc(S(=O)(=O)c2cc(Cl)cc(Cl)c2)ncc1C(=O)N[C@H]1CCc2ccccc21` [Compound 105]: the EC50 in experiment [1] is > 30 µM.
